Reference: patent publication US6855730B2, “3-methylidenyl-2-indolinone modulators of protein kinase” (Sugen, Inc., priority 1998, dated 2005)
pIC50: −log10 of the molar value.

Experiments:
flkGST = target: T1, flkGST (Homo sapiens, UniProt P35968); test: bio flkGST assay; format: biochemical
T1 construct: GST

human flk-1 = target: T2, human flk-1 (Homo sapiens, UniProt P35968); test: Biochemical FLK-1 assay (flk-1 autophosphorylation ELISA); settings: read-out: bio FLK1 IC50 (μM) % if inhibition at 100
T2 construct: host or cells: Flk-1/NIH cells (NIH fibroblasts)
Protocol: This assay evaluates flk-1 autophosphorylation activity in vitro using ELISA.
Materials And Reagents • 1. 15 cm tissue culture dishes • 2. Flk-1/NIH cells: NIH fibroblast line over-expressing human flk-1clone 3 (SUGEN, Inc., obtained from MPI, Martinsried, Germany). • 3. Growth medium: DMEM plus heat inactivated 10% FBS and 2 mM Glutamine (Gibco-BRL). • 4. Starvation medium: DMEM plus 0.5% heat-inactivated FBS, 2 mM Glutamine (Gibco-BRL). • 5. […] L4 or E38 monoclonal antibody specific for flk-1, Purified by Protein-A agarose affinity chromatography (SUGEN, Inc.). • 7. PBS (Dulbecco's Phosphate-Buffered Saline) Gibco Cat. No. 450-1300EB). • 8. HNTG (see BIOCHEMICAL FGFR for preparation). • 9. Pierce BCA protein determination kit. • 10. Blocking buffer • 11. TBST (pH 7.0) • 12. Kinase Buffer • 13. Kinase Stop Solution: 200 mM EDTA. • 14. […] AB kit (Vector Laboratories Cat. No. PK 4000). • 16. DMSO • 17. NUNC 96-well V bottom polypropylene plates (Applied Scientific Cat. No. AS-72092). • 18. Turbo-TMB (Pierce). • 19. Turbo-TMB stop solution: 1 M H2SO4. • 20. ATP (Sigma Cat. No. A-7699). • 21. 20% DMSO in TBS (pH 7.0). Procedure
Cell Growth and Lysate Preparation. • 1. Seed cell into growth medium and grow for 2-3 days to 90-100% confluency at 37° C. and 5% CO2.
2. Remove the medium and wash the cells twice with PBS. Lyse with HNTG lysis buffer. Collect all lysates and vortex mix them for 20-30 seconds. • 3. Remove insoluble material by centrifugation (5-10 min at about 10,000 ×g). • 4. Determine the protein concentration using BCA kit. • 5. Partition lysate into 1 mg aliquots, store at −80° C.
Assay Procedure • 1. Coat Corning 96-well ELISA plates with 2 μg/well purified L4 (or E 38) in 100 μl of PBS. Store overnight at […] • 2. Remove unbound proteins from wells by inverting the plate to remove the liquid. Wash one time with dH2O, pat plate on paper towel to remove excess liquid. • 3. Block plates with 150 μl blocking buffer per well. Incubate for 45-60 minutes with shaking at 4° C. • 4. Remove the blocking buffer and wash the ELISA plate three times with dH2O and one time with TBST. Pat plate on paper towel to remove excess liquid. • 5. Dilute lysate in PBS to give final concentration of 50 μg/100 μl. Add 100 μl of diluted lysate to each well. Incubate with shaking at 4° C. overnight. • 6. Remove unbound proteins from wells by inverting the plate. Wash as in step 4. • 7. Add 80 μl of kinase buffer to wells (90 μl to negative control wells). • 8. Dilute test compounds (normally 10-fold) into wells of a polypropylene plate containing 20% DMSO in TBS. • 9. Add 10 μl of the diluted compounds to the ELISA wells containing immobilized flk-1 and shake. Control wells receive no compounds. • 10. From stock 1 mM ATP, prepare 0.3 mM ATP solution in dH2O (alternatively, kinase buffer may be used). • 11. Add 10 μl of 0.3 mM ATP to all wells except the negative controls. Incubate for 60 min. at room temperature with shaking. • 12. After 1 hr stop the kinase reaction by adding 11 μl 200 mM EDTA. Shake for 1-2 min. • 13. Wash the ELISA plate 4 times with dH2O and twice with TBST. • 14. Add 100 μl of 1:5000 biotinylated 4G10:TBST to all wells. Incubate 45 min with shaking at room temperature. • 15. While the above is incubating, add 50 μl of solutions A & B from the ABC kit to 10 ml of TBST. These solutions must be combined approximately 30 min prior to use. • 16. Wash plates as in step 4. • 17. Add 100 μl of the preformed A & B complex to all wells. Incubate 30 min with shaking at room temperature. • 18. Wash plates as in step 4. • 19. Add 100 μl turbo-TMB. Shake at room temperature for 10-15 min. • 20. When the color in the positive control wells reaches an absorbance of about 0.35-0.4, stop the reaction with 100 μl of turbo-TMB stop solution. • 21. Read plates on Dynatech MR7000 ELISA reader, test filter: 450 nM, reference filter: 410 nM.

T1 sequence (P35968 786-1356 limits assumed): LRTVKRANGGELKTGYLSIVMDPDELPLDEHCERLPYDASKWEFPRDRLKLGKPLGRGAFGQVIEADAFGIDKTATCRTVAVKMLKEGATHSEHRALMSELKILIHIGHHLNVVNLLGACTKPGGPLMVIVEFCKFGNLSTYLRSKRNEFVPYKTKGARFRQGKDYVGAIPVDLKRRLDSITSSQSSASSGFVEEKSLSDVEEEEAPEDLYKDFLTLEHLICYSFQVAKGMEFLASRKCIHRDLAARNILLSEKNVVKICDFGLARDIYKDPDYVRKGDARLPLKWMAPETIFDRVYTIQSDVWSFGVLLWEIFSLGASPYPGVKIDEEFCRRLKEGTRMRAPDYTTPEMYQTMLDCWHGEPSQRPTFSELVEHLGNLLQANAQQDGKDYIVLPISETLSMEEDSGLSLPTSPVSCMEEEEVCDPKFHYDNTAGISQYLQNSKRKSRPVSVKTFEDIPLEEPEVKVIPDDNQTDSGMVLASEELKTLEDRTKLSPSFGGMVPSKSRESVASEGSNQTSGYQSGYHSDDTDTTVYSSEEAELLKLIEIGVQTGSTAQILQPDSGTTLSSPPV
T2 sequence (P35968 20-1356): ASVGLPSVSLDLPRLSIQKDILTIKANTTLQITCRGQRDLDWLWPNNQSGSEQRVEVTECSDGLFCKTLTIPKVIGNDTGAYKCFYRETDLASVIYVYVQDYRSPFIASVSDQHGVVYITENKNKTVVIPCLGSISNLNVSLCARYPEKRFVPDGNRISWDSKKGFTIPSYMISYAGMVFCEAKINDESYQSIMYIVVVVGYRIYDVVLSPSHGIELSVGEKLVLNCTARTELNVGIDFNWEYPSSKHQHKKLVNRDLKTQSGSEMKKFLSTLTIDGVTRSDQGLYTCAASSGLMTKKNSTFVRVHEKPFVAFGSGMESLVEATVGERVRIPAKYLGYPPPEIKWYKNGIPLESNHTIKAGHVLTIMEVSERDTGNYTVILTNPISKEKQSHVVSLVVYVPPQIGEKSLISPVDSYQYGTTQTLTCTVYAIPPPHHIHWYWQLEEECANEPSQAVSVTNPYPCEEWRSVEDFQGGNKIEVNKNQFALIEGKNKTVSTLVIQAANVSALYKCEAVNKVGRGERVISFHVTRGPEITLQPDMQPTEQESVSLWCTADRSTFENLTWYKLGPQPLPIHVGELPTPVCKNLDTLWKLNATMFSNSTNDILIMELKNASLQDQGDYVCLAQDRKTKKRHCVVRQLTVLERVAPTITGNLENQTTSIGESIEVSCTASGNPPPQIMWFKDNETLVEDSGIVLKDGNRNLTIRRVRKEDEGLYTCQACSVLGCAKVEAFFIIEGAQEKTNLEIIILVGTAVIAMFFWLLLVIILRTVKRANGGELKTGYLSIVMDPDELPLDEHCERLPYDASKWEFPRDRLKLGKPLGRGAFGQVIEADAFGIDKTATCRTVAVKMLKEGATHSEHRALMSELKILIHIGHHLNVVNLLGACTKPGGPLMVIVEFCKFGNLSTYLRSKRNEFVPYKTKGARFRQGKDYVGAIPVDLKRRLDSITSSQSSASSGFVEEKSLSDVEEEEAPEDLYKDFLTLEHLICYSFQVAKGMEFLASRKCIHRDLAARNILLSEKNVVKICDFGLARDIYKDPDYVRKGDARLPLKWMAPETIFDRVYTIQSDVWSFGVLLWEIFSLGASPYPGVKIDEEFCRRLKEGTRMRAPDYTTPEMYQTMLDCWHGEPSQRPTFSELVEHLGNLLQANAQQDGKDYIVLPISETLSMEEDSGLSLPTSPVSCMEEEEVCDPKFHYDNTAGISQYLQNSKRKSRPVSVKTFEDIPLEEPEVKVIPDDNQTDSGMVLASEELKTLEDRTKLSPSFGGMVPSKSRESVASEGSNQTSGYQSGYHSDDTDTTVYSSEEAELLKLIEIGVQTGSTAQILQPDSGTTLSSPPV

CCOC(=O)c1c(C)[nH]c(/C=C2\C(=O)Nc3ccc(Br)cc32)c1CCC(=O)O [Compound 114, 5-(5-Bromo-2-oxo-1,2-dihydroindol-3-ylidenemethyl)-4-(2-carboxyethyl)-2-methyl-1H-pyrrole-3-carboxylic acid ethyl ester]
pIC50 (flkGST): 5.48

Cc1cc(CCC(=O)O)c(/C=C2\C(=O)Nc3ccc(Br)cc32)[nH]1 [Compound 116, 3-[2-(5-Bromo-2-oxo-1,2-dihydroindol-3-ylidenemethyl)-5-methyl-1H-pyrrol-3-yl]-propionic acid]
pIC50 (flkGST): 7.00

COc1c(C(C)C)cc(/C=C2/C(=O)Nc3ccccc32)cc1C(C)C [Example 1, 3-(3,5-Diisopropyl-4-methoxybenzylidene)-1,3-dihydroindol-2-one]
IC50 (human flk-1): > 50 µM

COc1c(C(C)C)cc(/C=C2/C(=O)Nc3ccc(Cl)cc32)cc1C(C)C [Example 2, 5-Chloro-3-(3,5-diisopropyl-4-methoxybenzylidene)-1,3-dihydroindol-2-one]
IC50 (human flk-1): > 50 µM

O=C1Nc2ccc(N=Cc3cc4ccccc4[nH]3)cc2C1=Cc1cc2ccccc2[nH]1 [Example 171, 3-(1H-indol-2-ylmethylene)-5-[(1H-indol-2-ylmethylene)-amino]-1,3-dihydroindol-2-one]
IC50 (human flk-1): 20.4 µM

NS(=O)(=O)c1ccc2c(c1)/C(=C/c1c[nH]c3ccccc13)C(=O)N2 [Example 172, 3-(1H-Indol-3-ylmethylene)-2-oxo-2,3-dihydro-1H-indole-5-sulfonic acid amide]
pIC50 (flkGST): 4.98

CNS(=O)(=O)c1ccc2c(c1)/C(=C/c1cc3ccccc3[nH]1)C(=O)N2 [Example 173, 3-(1H-Indol-2-ylmethylene)-2-oxo-2,3-dihydro-1H-indole-5-sulfonic acid methylamide]
pIC50 (flkGST): 4.96

O=C1Nc2ccc(C(=O)O)cc2/C1=C/c1c[nH]c2ccccc12 [Example 174, 3-(1H-Indol-3-ylmethylene)-2-oxo-2,3-dihydro-1H-indole-5-carboxylic acid]
pIC50 (flkGST): 5.73

O=C1Nc2ccc(C(=O)O)cc2/C1=C/c1ccc2[nH]ccc2c1 [Example 177, 3-(1H-Indol-5-ylmethylene)-2-oxo-2,3-dihydro-1H-indole-5-carboxylic acid]
pIC50 (flkGST): 5.87

Nc1ccc2c(c1)/C(=C/c1ccc3[nH]ccc3c1)C(=O)N2 [Example 179, 5-Amino-3-(1H-indol-5-ylmethylene)-1,3-dihydro-indol-2-one]
pIC50 (flkGST): 5.74

Cc1c(/C=C2\C(=O)Nc3ccc(N)cc32)[nH]c2ccccc12 [Example 180, 5-Amino-3-(3-methyl-1H-indol-2-ylmethylene)-1,3-dihydroindol-2-one]
pIC50 (flkGST): 5.95

Cc1[nH]c2ccccc2c1/C=C1\C(=O)Nc2ccc(C(=O)O)cc21 [Example 182, 3-(2-Methyl-1H-indol-3-ylmethylene)-2-oxo-2,3-dihydro-1H-indole-5-carboxylic acid]
pIC50 (flkGST): 4.73

Cc1[nH]c2ccccc2c1/C=C1\C(=O)Nc2ccc(N)cc21 [Example 187, 5-Amino-3-(2-methyl-1H-indol-3-ylmethylene)-1,3-dihydroindol-2-one]
pIC50 (flkGST): < 4.70

O=C(O)CCc1c(/C=C2\C(=O)Nc3ccccc32)[nH]c2c1CCCC2 [Example 190, 3-[2-(2-Oxo-1,2-dihydro-indol-3-ylidenemethyl)-4,5,6,7-tetrahydro-1H-indol-3-yl]-propionic acid]
IC50 (human flk-1): 0.06 µM
pIC50 (flkGST): 7.06

O=C(O)CCc1c(/C=C2\C(=O)Nc3ccc(Cl)cc32)[nH]c2c1CCCC2 [Example 191, 3-[2-(5-Chloro-2-oxo-1,2-dihydroindol-3-ylidenemethyl)-4,5,6,7-tetrahydro-1H-indol-3-yl]-propionic acid]
IC50 (human flk-1): 0.02 µM
pIC50 (flkGST): 7.40

O=C(O)CCc1c(/C=C2\C(=O)Nc3ccc(Br)cc32)[nH]c2c1CCCC2 [Example 192, 3-[2-(5-Bromo-2-oxo-1,2-dihydroindol-3-ylidenemethyl)-4,5,6,7-tetrahydro-1H-indol-3yl]-propionic acid]
IC50 (human flk-1): 0.03 µM
pIC50 (flkGST): 7.52

Cc1cccc2c1/C(=C/c1[nH]c3c(c1CCC(=O)O)CCCC3)C(=O)N2 [Example 193, 3-[2-(4-Methyl-2-oxo-1,2-dihydroindol-3-ylidenemethyl)-4,5,6,7-tetrahydro-1H-indol-3-yl]-propionic acid]
IC50 (human flk-1): 0.02 µM
pIC50 (flkGST): 5.44

Cc1ccc2c(c1)/C(=C/c1[nH]c3c(c1CCC(=O)O)CCCC3)C(=O)N2 [Example 194, 3-[2-(5-Methyl-2-oxo-1,2-dihydroindol-3-ylidenemethyl)-4,5,6,7-tetrahydro-1H-indol-3-yl]-propionic acid]
IC50 (human flk-1): 0.001 µM
pIC50 (flkGST): 5.18

O=C(O)CCc1c(/C=C2\C(=O)Nc3cc(Cl)ccc32)[nH]c2c1CCCC2 [Example 195, 3-[2-(6-Chloro-2-oxo-1,2-dihydroindol-3-ylidenemethyl)-4,5,6,7-tetrahydro-1H-indol-3-yl]-propionic acid]
IC50 (human flk-1): 0.03 µM
pIC50 (flkGST): 5.36

COc1ccc2c(c1)NC(=O)/C2=C\c1[nH]c2c(c1CCC(=O)O)CCCC2 [Example 196, 3-[2-(6-Methoxy-2-oxo-1,2-dihydroindol-3-ylidenemethyl)-4,5,6,7-tetrahydro-1H-indol-3-yl]-propionic acid]
IC50 (human flk-1): 0.89 µM
pIC50 (flkGST): 6.39

CN(C)C(=O)CCc1c(/C=C2\C(=O)Nc3ccccc32)[nH]c2c1CCCC2 [Example 197, N,N-Dimethyl-3-[2-(2-oxo-1,2-dihydroindol-3-ylidenemethyl)-4,5,6,7-tetrahydro-1H-indol-3-yl]-propionamide]
IC50 (human flk-1): 2.1 µM
pIC50 (flkGST): 6.21

O=C(O)CCc1c(/C=C2\C(=O)Nc3ncccc32)[nH]c2c1CCCC2 [Example 203, 3-[2-(2-Oxo-1,2-dihydropyrrolo[2,3-b]pyridin-3-ylidenemethyl)-4,5,6,7-tetrahydro-1H-indol-3-yl]-propionic acid]
IC50 (human flk-1): 0.14 µM

O=C(O)CCc1ccccc1/C=C1/C(=O)Nc2ccccc21 [Example 214, 3-[2-(2-Oxo-1,2-dihydroindol-3-ylidenemethyl)-phenyl]-propionic acid]
IC50 (human flk-1): 50.6 µM

Cc1c[nH]c(/C=C2\C(=O)Nc3ccccc32)c1CCC(=O)O [Example 215, 3-[4-Methyl-2-(2-oxo-1,2-dihydroindol-3-ylidenemethyl)-1H-pyrrol-3-yl]-propionic acid]
pIC50 (flkGST): 7.10

Cc1c[nH]c(/C=C2\C(=O)Nc3ccc(Cl)cc32)c1CCC(=O)O [Example 216, 3-[2-(5-Chloro-2-oxo-1,2-dihydroindol-3-ylidenemethyl)-4-methyl-1H-pyrrol-3-yl]-propionic acid]
IC50 (human flk-1): 2.91 µM

COc1ccc2c(c1)NC(=O)/C2=C\c1[nH]cc(C)c1CCC(=O)O [Example 217, 3-[2-(6-Methoxy-2-oxo-1,2-dihydroindol-3-ylidenemethyl)-4-methyl-1H-pyrrol-3-yl]-propionic acid]
IC50 (human flk-1): 1.47 µM

Cc1c[nH]c(C=C2C(=O)Nc3cc(Cl)ccc32)c1CCC(=O)O [Example 219, 3-[2-(6-Chloro-2-oxo-1,2-dihydroindol-3-ylidenemethyl)-4-methyl-1H-pyrrol-3-yl]-propionic acid]
IC50 (human flk-1): 0.19 µM
